Experimental data taken from patent US20110306638A1, “BENZISOXAZOLE PIPERIDINYL DERIVATIVES, PHARMACEUTICAL COMPOSITIONS COMPRISING THE DERIVATIVES AND THEIR USE” (NHWA PHARMA. CORPORATION, priority 2008, published 2011).
Read-outs that look alike come from different tables or passages of the source. Marks after values point to notes of the source that are not given here.

Tests used:
[1] = biological target: opioid receptor subtype μ (Homo sapiens, UniProt P35372); assay: Competitive binding to opioid receptor subtype μ, [3H]Diprenorphine; details: tested concentration 10^−5 mol/L; read-out: μ inhibition percentage of competitive binding
Procedure: (§1) The respective test compounds were added to the sample tube (final concentration of 10^−5M), incubated at 37° C. for 30 min and placed in ice bath to terminate the reaction. The reaction mixture was filtered through GF/C (Whatman) glass fiber filter by vacuum filtration on a Millipore sample collector. The filter was washed three times with 50 mM Tris-HCl (pH7.4), each with 4 ml; dried and transferred into a 0.5 ml Eppendorf tube, in which 0.5 ml lipophilic scintillation fluid was added. Radioactivity was detected by a LS6500 scintillation counter. Each concentration had three duplicate test tubes and each separate test was repeated 3 to 4 times.
(§2) Specific binding CMP value for each sample tube=overall binding CPM value for each sample tube−CPM value of non-specific binding tube.
(§3) [Inhibition percentage of competitive binding between the test compound and different opioid receptor subtypes (%)=(100%−specific binding (CPM value)of sample tube/specific binding(CPM value)of solvent group×100%)]
(§4) Average was taken for each test drug from three duplicate tubes; each test was repeated two or more times.

[2] = system: Kunming mice; assay: Acetic acid-induced abdominal writhing test in mice; type: in vivo
Procedure: Kunming mice, SPF KM mice purchased from […] SLAC LABORATORY ANIMAL CO. LTD and kept in normal environment.
The compounds were dissolved in water for injection at a concentration of 4 mg/ml, 2 mg/ml and 1 mg/ml and were given intragastrically to animals.
(§5) Three different doses (10, 20, and 40 mg/kg) were administered to the test groups.
Aspirin was used as a positive control and acetic acid writhing test was used.
30 mice (half male and half female) weighing 18-23 g were divided into five groups, including negative control group, positive control group, low dose group, medium dose group and high dose group:
Mice in test group received test drug (10 mg/kg, 20 mg/kg, 40 mg/kg) via intragastric administration. Negative control group received physiological saline (20 ml/kg) via oral administration. Positive control group received aspirin (200 mg/kg) via oral administration. One hour later, each group received 0.7% acetic acid 10 ml/kg intraperitoneally. Five minutes later, the number of writhes was counted within the subsequent 15 min period; inhibition percentage of writhing response in each test group was calculated by the following equation: […]

[3] = biological target: T1, 5-HT2A receptor (Homo sapiens, UniProt P28223); assay: In-vitro competitive binding to 5-HT2A receptor, [3H]-Ketanserin, transformed HEK293 cells; details: for inhibition at 10 µM: read-out: 5-HT2A [3H]-Ketanserin inhibition percentage; for IC50 / Ki: affinity to 5-HT2A receptor, concentration gradient test
T1 construct: expressed in transfected cells; host or cells: HEK293
Procedure: All test samples were dissolved in DMSO at a concentration of 0.01 mol/L, and then diluted with deionized water to 100 umol/L.
HEK293 cells were transformed with plasmid carriers containing the gene coding for 5-HT2A receptor protein by using calcium phosphate transformation. Stable cell strains which could stably express 5-HT2A receptor protein were obtained from the transformed cells by cultivating in a culture media containing G418, selecting monoclones of the cell and performing radioactive ligand binding assay.
Beckman LS 6500 Scintillation Counter.
HEK-293 cells were infected with recombined viruses containing various genes described above. […] Cells were centrifuged at 1000 rpm for 5 min Culture media was discarded, and cell bodies were collected and stored at −20° C. in a freezer. The cell bodies were resuspended with Tris-HCl reaction buffer during assay.
After incubation at 37° C. for 15 min, the reaction mixture was immediately transferred into ice bath to terminate the reaction; the reaction mixture was quickly filtered through GF/C glass cellulose filter on a Millipore cell sample collector, and was then washed with eluting solution (50 mM Tris-HCl, PH 7.7, 3 ml×3) and dried in a microwave for 8-9 min. The filter was transferred into a 0.5 ml centrifuge tube, and 500 μl lipid soluble scintillation fluid was added. The centrifuge tube was allowed to stand in darkness for more than 30 min. Radioactivity was determined by counting Inhibition percentage of each compound on isotope ligand binding was calculated according to the following equation:
inhibition percentage(I %)=cpm of overall binding tube−cpm of compound/cpm of overall binding tube−cpm of nonspecific binding tube×100%.
Each compound was tested in two duplicate test tubes and two separate tests were performed.

[4] = biological target: opioid receptor subtype κ (Homo sapiens, UniProt P41145); assay: Competitive binding to opioid receptor subtype κ, [3H]Diprenorphine; details: tested concentration 10^−5 mol/L; read-out: κ inhibition percentage of competitive binding
Procedure: as §1, §2, §3, §4

[5] = system: Kunming mice; assay: Hot-plate test in mice; type: in vivo; details: 1 h post dose
Procedure: Kunming mice, SPF KM mice were purchased from […] SLAC LABORATORY ANIMAL CO. LTD and kept in normal environment.
The compounds were dissolved in water for injection at a concentration of 4 mg/ml, 2 mg/ml and 1 mg/ml and were given subcutaneously to animals.
as §5
Morphine was used as a positive control and hot plate test was used.
30-40 mice (half male and half female) weighed from 18 to 23 gram were used. First, each mouse was placed on a hot plat at 55° C. to determine basic pain threshold for 2-3 times. Those animals with basic pain threshold of 5-30 s were qualified, unqualified mice were not used. 30 qualified mice were divided into five groups, including negative control group, positive control group, low-dose group, medium-dose group and high-dose group:
Mice in test groups received test sample solution (10 mg/kg, 20 mg/kg, 40 mg/kg) via subcutaneous injection in the neck. Positive control group received subcutaneous injection of morphine (2 mg/kg). One hour later, pain threshold values were determined for mice in each group as post-drug pain threshold. Percentage increase in pain threshold was calculated according to the following equation: […]

[6] = system: mice; assay: Sedative effects in mice (spontaneous activities); type: in vivo; set-up: unit not given here; details: single dose 20 mg/kg
Procedure: Spontaneous activities of the mice were recorded by alternating current tube, Sedative effects were tested after single dose (20 mg/kg).

[7] = biological target: opioid receptor subtype δ (Homo sapiens, UniProt P41143); assay: Competitive binding to opioid receptor subtype δ, [3H]Diprenorphine; details: tested concentration 10^−5 mol/L; read-out: δ inhibition percentage of competitive binding
Procedure: as §1, §2, §3
Average was taken for each test drug from three duplicate tubes; each test was repeated two or more times. Data were presented as mean±SE and statistical comparison was made by ANOVA.

[8] = biological target: T2, 5-HT reuptake by brain synapses (Rattus norvegicus, UniProt P31652); assay: [3H]5-HT reuptake test in rat brain synapses; type: biochemical; details: for inhibition at 10 µM: final concentration 10 umol/L, rat brain synapses, read-out: 5-HTU [3H] 5-HT reuptake inhibition percentage Mean
T2 construct: forehead cortex was obtained for [^3H]5-HT, [^3H]NA reuptake test; from tissue; host or cells: rat (SD) forebrain cortex synaptosomes
Procedure: The method was as follows:
Male SD rats were killed by cervical dislocation, heads were immediately cut and brains were obtained and put on ice, related brain tissues were dissected (forehead cortex was obtained for [^3H]5-HT, [^3H]NA reuptake test, corpus striatum was obtained for [^3H]DA reuptake).
After the sample was weighed, 10 folds (V/W) ice cold 0.32 mol/L sucrose solution was added.
According to [a. […] 5-HT was added and after incubation in water bath at 37° C. for 10 min, the reaction mixture was immediately taken out of the water bath and 2 ml ice cold 150 mmol/L Tris-HCl was added to terminate the reaction. The sample was collected on a round glass fiber filter by vacuum filtration and washed three times with 3 ml ice cold Tris-HCl buffer. The filter membrane was removed, dried in a far-infrared oven for 15 min, then transferred into a EP tube, in which 1.5 ml scintillation fluid was added, left overnight and detected by a scintillation counter. The test sample was not added into solvent controlled overall binding tube or non-specific binding tube. 50 μl solvent was added into the overall binding tube, and in [^3H] 5-HT reuptake test, 600 μmol/L cocaine was added into the non-specific binding tube.

[9] = 10 mg/kg intragastric administration
[10] = 20 mg/kg intragastric administration
[11] = 40 mg/kg intragastric administration

| inhibition at 10 µM [1] [%] | inhibition at 10 µM [4] [%] | inhibition at 10 µM [7] [%] | IC50 [3] [nM] | Ki [3] [nM] | inhibition at 10 µM ([3]; final concentration 10 umol/L) [%] | inhibition at 10 µM [8] [%] | inhibitory activity on 5-HT2A (in words) ([3]; compared with Aripiprazole) | Compound | Inhibition percentage of writhing response [2, 9] | Inhibition percentage of writhing response [2, 10] | Inhibition percentage of writhing response [2, 11] | inhibition at 10 µM [3] [%] | Percentage increase in pain threshold ([5]; 10 mg/kg S.c.) | Percentage increase in pain threshold ([5]; 20 mg/kg S.c.) | Percentage increase in pain threshold ([5]; 40 mg/kg S.c.) | Sedative effect [6] | inhibitory activity on 5-HT reuptake (in words) ([8]; at 10 μmol/L, compared with Dutoxetine) |
| --- | --- | --- | --- | --- | --- | --- | --- | --- | --- | --- | --- | --- | --- | --- | --- | --- | --- |
| 59.3 ± 0.7 | 44.1 ± 0.2 | 0 | 3.99 | 2.69 | 99.1 | 86 | – | Fc1ccc2c(C3CCN(CCCCn4cnc5ccc(F)cc54)CC3)noc2c1 [III-2, 6-fluoro-3-(1-(4-(6-fluoro-1H-benzo[d]imidazol-1-yl)butyl)piperidin-4-yl)benzo[d]isoxazole] | 97.61* % | 100.0** % | 100.0** % | – | 92.55* % | 172.2* % | 97.22% | 64** | – |
| 41.9 ± 0.5 | 7 ± 0.6 | 0 | 3.09 | 2.06 | 99.7 | 88.3 | potent inhibitory activities | N#Cc1ccc2cnn(CCCCN3CCC(c4noc5cc(F)ccc45)CC3)c2c1 [II-14, 1-(4-(4-(6-fluorobenzo[d]isoxazol-3-yl)piperidin-1-yl)butyl)-1H-indazole-6-carbonitrile] | 77.70* % | 69.03% | 85.66** % | – | – | – | – | 20 | potent inhibitory activities |

| Compound | inhibition at 10 µM [1] [%] | inhibition at 10 µM [4] [%] | inhibition at 10 µM [7] [%] | IC50 [3] [nM] | Ki [3] [nM] | inhibition at 10 µM ([3]; final concentration 10 umol/L) [%] | inhibition at 10 µM [8] [%] | inhibitory activity on 5-HT2A (in words) ([3]; compared with Aripiprazole) | Inhibition percentage of writhing response [2, 9] | Inhibition percentage of writhing response [2, 10] | Inhibition percentage of writhing response [2, 11] | inhibition at 10 µM [3] [%] | Percentage increase in pain threshold ([5]; 10 mg/kg S.c.) | Percentage increase in pain threshold ([5]; 20 mg/kg S.c.) | Percentage increase in pain threshold ([5]; 40 mg/kg S.c.) | Sedative effect [6] | inhibitory activity on 5-HT reuptake (in words) ([8]; at 10 μmol/L, compared with Dutoxetine) |
| --- | --- | --- | --- | --- | --- | --- | --- | --- | --- | --- | --- | --- | --- | --- | --- | --- | --- |
| Fc1ccc2c(C3CCN(CCCOn4nnc5ccc(Cl)cc54)CC3)noc2c1 [IV-4, 3-(1-(3-(6-chloro-1H-benzo[d][1,2,3]triazol-1-yloxy)propyl)piperidin-4-yl)-6-fluorobenzo[d]isoxazole] | 34.3 ± 1.3 | 37.3 ± 1.7 | 0 | – | – | – | – | – | 88.33% | 99.44% | 97.78% | 97.4 | 51.63% | 79.36* % | 89.96* % | 70.8* | – |
